Measured values from PubChem BioAssay AID256 (DTP/NCI, 2004).
Values joined by “and” are separate entries in the source; they are usually repeats but may differ in a detail not shown here. Equal values may be shown once. Inconclusive results and toxic doses are left out. How the source made its calls: active means survival T/C of 150% or more; inactive means T/C below 125% in these data.

System: CD2F1 mice, L1210 leukemia ip, survival T/C
Test: NCI In Vivo Anticancer Drug Screen. Data for tumor model L1210 Leukemia (intraperitoneal) in CD2F1 (CDF1) mice
Details: higher = longer survival
Summary of the method: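 Mice carrying a transplanted tumor received test compound or vehicle alone. The value is the measurement in the treated group divided by that in the vehicle-treated control group.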

[1] = endpoint: mean survival time, dose: 50.0 mg/kg/injection, schedule: Q01DX009 (ip), vehicle: saline with Tween-80
[2] = endpoint: mean survival time, dose: 100.0 mg/kg/injection, schedule: Q01DX001 (ip), vehicle: saline with Tween-80
[3] = endpoint: mean survival time, dose: 100.0 mg/kg/injection, schedule: Q04DX003 (ip), vehicle: saline with Tween-80
[4] = endpoint: mean survival time, dose: 200.0 mg/kg/injection, schedule: Q01DX001 (ip), vehicle: saline with Tween-80
[5] = endpoint: mean survival time, dose: 200.0 mg/kg/injection, schedule: Q04DX003 (ip), vehicle: saline with Tween-80
[6] = endpoint: mean survival time, dose: 400.0 mg/kg/injection, schedule: Q01DX001 (ip), vehicle: saline with Tween-80
[7] = endpoint: mean survival time, dose: 400.0 mg/kg/injection, schedule: Q04DX003 (ip), vehicle: saline with Tween-80
[8] = endpoint: mean survival time, dose: 100.0 mg/kg/injection, schedule: Q01DX009 (ip), vehicle: saline with Tween-80
[9] = endpoint: mean survival time, dose: 200.0 mg/kg/injection, schedule: Q01DX009 (ip), vehicle: saline with Tween-80
[10] = endpoint: mean survival time, dose: 400.0 mg/kg/injection, schedule: Q01DX009 (ip), vehicle: saline with Tween-80
[11] = endpoint: mean survival time, dose: 25.0 mg/kg/injection, schedule: Q01DX009 (ip), vehicle: saline with Tween-80
[12] = endpoint: mean survival time, dose: 25.0 mg/kg/injection, schedule: Q04DX003 (ip), vehicle: saline with Tween-80
[13] = endpoint: mean survival time, dose: 50.0 mg/kg/injection, schedule: Q04DX003 (ip), vehicle: saline with Tween-80
[14] = endpoint: mean survival time, dose: 12.5 mg/kg/injection, schedule: Q01DX009 (ip), vehicle: saline with Tween-80

Measured: T/C

O=C(O)CC(CC(=O)O)C(=O)O.[NH-]C1CCCCC1[NH-].[Pt+2]
inactive: endpoint: median survival time, dose: 3.12 mg/kg/injection, schedule: Q04DX003 (ip), vehicle: Klucel (hydroxypropylcellulose) (HPC) 112 % of control | endpoint: median survival time, dose: 3.12 mg/kg/injection, schedule: Q04DX003 (ip), vehicle: saline 106 % of control | endpoint: median survival time, dose: 6.25 mg/kg/injection, schedule: Q04DX003 (ip), vehicle: Klucel (hydroxypropylcellulose) (HPC) 112 % of control | endpoint: median survival time, dose: 6.25 mg/kg/injection, schedule: Q04DX003 (ip), vehicle: saline 106 % of control | endpoint: median survival time, dose: 12.5 mg/kg/injection, schedule: Q04DX003 (ip), vehicle: Klucel (hydroxypropylcellulose) (HPC) 122 % of control | endpoint: median survival time, dose: 12.5 mg/kg/injection, schedule: Q04DX003 (ip), vehicle: saline 101 % of control and 109 % of control | endpoint: median survival time, dose: 25.0 mg/kg/injection, schedule: Q04DX003 (ip), vehicle: Klucel (hydroxypropylcellulose) (HPC) 101 % of control | endpoint: median survival time, dose: 25.0 mg/kg/injection, schedule: Q04DX003 (ip), vehicle: saline 118 % of control and 107 % of control | endpoint: median survival time, dose: 50.0 mg/kg/injection, schedule: Q04DX003 (ip), vehicle: Klucel (hydroxypropylcellulose) (HPC) 103 % of control | endpoint: median survival time, dose: 50.0 mg/kg/injection, schedule: Q04DX003 (ip), vehicle: saline 109 % of control | endpoint: median survival time, dose: 100.0 mg/kg/injection, schedule: Q04DX003 (ip), vehicle: Klucel (hydroxypropylcellulose) (HPC) 109 % of control | endpoint: median survival time, dose: 100.0 mg/kg/injection, schedule: Q04DX003 (ip), vehicle: saline 120 % of control and 110 % of control | endpoint: median survival time, dose: 200.0 mg/kg/injection, schedule: Q04DX003 (ip), vehicle: Klucel (hydroxypropylcellulose) (HPC) 116 % of control | endpoint: median survival time, dose: 200.0 mg/kg/injection, schedule: Q04DX003 (ip), vehicle: saline 113 % of control

O=C(Nc1ccc([N+](=O)[O-])cc1Cl)OCCc1ccccn1
inactive: [1] 90 % of control | [2] 98 % of control | [3] 93 % of control | [4] 95 % of control | [5] 95 % of control | [6] 93 % of control | [7] 90 % of control

CCC1CC2CN(CCc3c([nH]c4ccccc34)C(C(=O)OC)(c3cc4c(cc3OC)N(C)C3C(O)(C(=O)OC)C(OC(C)=O)C5(CC)C=CCN6CCC43C65)C2)C1 (stereo not drawn)
inactive: endpoint: median survival time, dose: 0.06 mg/kg/injection, schedule: Q01DX009 (ip), vehicle: saline 102 % of control | endpoint: median survival time, dose: 0.13 mg/kg/injection, schedule: Q01DX009 (ip), vehicle: saline 103 % of control | endpoint: median survival time, dose: 0.25 mg/kg/injection, schedule: Q01DX009 (ip), vehicle: saline 105 % of control | endpoint: median survival time, dose: 0.5 mg/kg/injection, schedule: Q01DX009 (ip), vehicle: saline 116 % of control | endpoint: median survival time, dose: 0.5 mg/kg/injection, schedule: Q01DX009 (ip), vehicle: water 113 % of control | endpoint: median survival time, dose: 1.0 mg/kg/injection, schedule: Q01DX009 (ip), vehicle: saline 120 % of control | endpoint: median survival time, dose: 1.0 mg/kg/injection, schedule: Q01DX009 (ip), vehicle: water 116 % of control | endpoint: median survival time, dose: 2.0 mg/kg/injection, schedule: Q01DX009 (ip), vehicle: water 104 % of control

COc1ccc(N(C)C/C(CN)=N/O)cc1
inactive: endpoint: mean survival time, dose: 100.0 mg/kg/injection, schedule: Q01DX001 (ip), vehicle: Klucel (hydroxypropylcellulose) (HPC) 97 % of control | endpoint: mean survival time, dose: 200.0 mg/kg/injection, schedule: Q01DX001 (ip), vehicle: Klucel (hydroxypropylcellulose) (HPC) 102 % of control

Oc1ccc(/C=N\N=C\c2ccc(O)cc2)cc1
inactive: [8] 86 % of control | [3] 96 % of control | [9] 86 % of control | [5] 89 % of control | [10] 91 % of control | [7] 96 % of control

O=C(O)c1cccc2[nH][nH]c(=O)c12
inactive: [2] 100 % of control | [8] 101 % of control | [4] 102 % of control | [9] 100 % of control | [6] 100 % of control | [10] 98 % of control

CC(=Nc1ccccc1)c1cccs1
inactive: [3] 95 % of control | [5] 101 % of control | [7] 87 % of control

CCN=C=NCCCN(C)C
inactive: endpoint: mean survival time, dose: 6.25 mg/kg/injection, schedule: Q01DX009 (ip), vehicle: saline 105 % of control | endpoint: mean survival time, dose: 12.5 mg/kg/injection, schedule: Q01DX009 (ip), vehicle: saline 110 % of control | endpoint: mean survival time, dose: 25.0 mg/kg/injection, schedule: Q01DX009 (ip), vehicle: saline 100 % of control

NC(CCC(=O)Nc1cccc2ccccc12)C(=O)O (stereo not drawn)
inactive: [1] 98 % of control | [8] 107 % of control | [9] 104 % of control

CC(C)c1ccc(C(=O)O)cc1S(=O)(=O)Cl
inactive: endpoint: mean survival time, dose: 25.0 mg/kg/injection, schedule: Q04DX003 (ip), vehicle: saline 98 % of control | endpoint: mean survival time, dose: 50.0 mg/kg/injection, schedule: Q04DX003 (ip), vehicle: saline 109 % of control | endpoint: mean survival time, dose: 100.0 mg/kg/injection, schedule: Q04DX003 (ip), vehicle: saline 100 % of control and 107 % of control

CCCOC(=O)c1ccc(NC(=O)Nc2ccc(C(=O)OCC)cc2)cc1
inactive: endpoint: mean survival time, dose: 25.0 mg/kg/injection, schedule: Q01DX001 (ip), vehicle: saline with Tween-80 96 % of control | [11] 88 % of control | endpoint: mean survival time, dose: 25.0 mg/kg/injection, schedule: Q04DX002 (ip), vehicle: saline with Tween-80 92 % of control and 95 % of control | [12] 102 % of control | endpoint: mean survival time, dose: 50.0 mg/kg/injection, schedule: Q01DX001 (ip), vehicle: saline with Tween-80 93 % of control | [1] 88 % of control and 94 % of control | endpoint: mean survival time, dose: 50.0 mg/kg/injection, schedule: Q04DX002 (ip), vehicle: saline with Tween-80 92 % of control and 98 % of control | [13] 92 % of control | [2] 87 % of control and 93 % of control | [8] 91 % of control and 96 % of control | [3] 91 % of control and 94 % of control | [4] 86 % of control | endpoint: mean survival time, dose: 200.0 mg/kg/injection, schedule: Q04DX002 (ip), vehicle: saline with Tween-80 90 % of control | [5] 86 % of control | endpoint: mean survival time, dose: 400.0 mg/kg/injection, schedule: Q04DX002 (ip), vehicle: saline with Tween-80 90 % of control | [7] 88 % of control

CC1CCC(NC2=NCCO2)C(C)C1 (stereo not drawn)
inactive: [14] 105 % of control | [11] 112 % of control | [12] 101 % of control | [1] 101 % of control | [13] 101 % of control

O=NC1C2C=CC(C2)C1Cl (stereo not drawn)
inactive: endpoint: mean survival time, dose: 100.0 mg/kg/injection, schedule: Q01DX001 (ip), vehicle: saline 93 % of control | endpoint: mean survival time, dose: 200.0 mg/kg/injection, schedule: Q01DX001 (ip), vehicle: saline 88 % of control | endpoint: mean survival time, dose: 400.0 mg/kg/injection, schedule: Q01DX001 (ip), vehicle: saline 96 % of control

COc1cc2c(ccc3cc4cccc[n+]4cc32)c(Br)c1OC
inactive: [14] 98 % of control | endpoint: mean survival time, dose: 12.5 mg/kg/injection, schedule: Q04DX003 (ip), vehicle: saline sonified 97 % of control | [11] 100 % of control | endpoint: mean survival time, dose: 25.0 mg/kg/injection, schedule: Q04DX003 (ip), vehicle: saline sonified 97 % of control | [1] 100 % of control | endpoint: mean survival time, dose: 50.0 mg/kg/injection, schedule: Q04DX003 (ip), vehicle: saline sonified 103 % of control

O=c1[nH]ncc2c(C3OC(CO)C(O)C3O)cnn12 (stereo not drawn)
inactive: endpoint: median survival time, dose: 4.75 mg/kg/injection, schedule: Q01DX005 (ip), vehicle: distilled water + Tween-80 109 % of control | endpoint: median survival time, dose: 9.5 mg/kg/injection, schedule: Q01DX005 (ip), vehicle: distilled water + Tween-80 100 % of control | endpoint: median survival time, dose: 19.0 mg/kg/injection, schedule: Q01DX005 (ip), vehicle: distilled water + Tween-80 106 % of control | endpoint: median survival time, dose: 38.0 mg/kg/injection, schedule: Q01DX005 (ip), vehicle: distilled water + Tween-80 102 % of control | endpoint: median survival time, dose: 76.0 mg/kg/injection, schedule: Q01DX005 (ip), vehicle: distilled water + Tween-80 98 % of control

CCCCCCN(CCCCCC)CP(=O)(CN(CCCCCC)CCCCCC)CN(CCCCCC)CCCCCC
inactive: [2] 95 % of control | [4] 104 % of control | [6] 104 % of control
